Reference: patent US20250051338A1, “TYK2 DEGRADERS AND USES THEREOF” (Kymera Therapeutics, Inc., priority 2021, published 2025)

Key:
Type in all cases: cell-based
[1] = target: T1, TYK2 (Homo sapiens, UniProt P29597); assay: TYK2 degradation MSD assay in OCI-LY10 cells; parameters: endogenous in cells; host or cells: EBV-B cells; details: 4 to 24 hours incubation, read-out: TYK2 MSD DC50 rating in OCI-LY10
In short: (§1)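 DC50 values reflect dose-dependent decrease of TYK2 protein, read by MSD after cells were exposed to compound (top 1 to 10 μM, 1:3, 9 doses) for 4 to 24 hours at 37° C.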

[2] = target: T1, TYK2; assay: TYK2 degradation MSD assay in human PBMC cells; parameters: endogenous in cells; host or cells: human PBMC; details: 4 to 24 hours incubation, read-out: TYK2 MSD DC50 rating in human PBMC
In short: as §1

[3] = target: T1, TYK2; assay: TYK2 degradation MSD assay in EBV-B cells; parameters: endogenous in cells; host or cells: EBV-B cells; details: 4 to 24 hours incubation, read-out: TYK2 MSD DC50 rating in EBV-B
In short: as §1

T1 sequence (P29597 whole entry): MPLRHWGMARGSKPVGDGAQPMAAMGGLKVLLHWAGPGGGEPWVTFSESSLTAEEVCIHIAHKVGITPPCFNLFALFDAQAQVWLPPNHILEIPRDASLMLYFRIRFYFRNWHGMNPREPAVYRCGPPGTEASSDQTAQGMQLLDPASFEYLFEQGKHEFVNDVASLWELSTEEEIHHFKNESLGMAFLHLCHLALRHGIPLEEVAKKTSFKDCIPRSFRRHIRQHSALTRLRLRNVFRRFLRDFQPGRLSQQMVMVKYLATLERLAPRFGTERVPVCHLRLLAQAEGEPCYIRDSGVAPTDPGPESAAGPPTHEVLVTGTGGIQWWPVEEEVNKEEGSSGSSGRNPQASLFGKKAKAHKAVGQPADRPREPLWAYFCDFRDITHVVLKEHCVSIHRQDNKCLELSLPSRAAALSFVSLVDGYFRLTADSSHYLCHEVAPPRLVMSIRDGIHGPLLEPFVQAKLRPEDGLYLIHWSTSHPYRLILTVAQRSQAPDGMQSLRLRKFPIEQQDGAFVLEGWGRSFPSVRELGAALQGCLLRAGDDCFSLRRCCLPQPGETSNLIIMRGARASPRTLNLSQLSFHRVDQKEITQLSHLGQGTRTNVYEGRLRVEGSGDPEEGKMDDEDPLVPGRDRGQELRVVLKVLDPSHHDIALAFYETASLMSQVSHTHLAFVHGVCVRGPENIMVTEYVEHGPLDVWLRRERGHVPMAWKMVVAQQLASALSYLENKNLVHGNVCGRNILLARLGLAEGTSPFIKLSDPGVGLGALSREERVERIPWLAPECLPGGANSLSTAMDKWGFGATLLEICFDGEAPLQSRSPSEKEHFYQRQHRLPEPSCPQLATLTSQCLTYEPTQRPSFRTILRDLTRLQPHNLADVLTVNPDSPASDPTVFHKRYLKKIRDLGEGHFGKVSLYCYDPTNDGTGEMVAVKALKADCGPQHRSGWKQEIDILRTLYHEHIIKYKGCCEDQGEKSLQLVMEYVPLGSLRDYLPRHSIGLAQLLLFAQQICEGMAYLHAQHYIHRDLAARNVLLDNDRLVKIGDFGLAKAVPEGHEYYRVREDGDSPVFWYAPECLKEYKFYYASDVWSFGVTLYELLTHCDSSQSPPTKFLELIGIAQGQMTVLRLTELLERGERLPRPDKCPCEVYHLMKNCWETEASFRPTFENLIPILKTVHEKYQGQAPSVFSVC

Structure (SMILES) | DC50 [1] | DC50 [2] | DC50 [3]
CNC(=O)c1cnc(NC(=O)NCCCCCCCc2ccc3c(c2)n(C)c(=O)n3C2CCC(=O)NC2=O)cc1Nc1cccc(-c2ncc(F)cn2)c1OC (stereo not drawn) [Example K188] | > 100 nM | < 1 nM | > 100 nM
CNC(=O)c1cnc(Nc2ccc(C(=O)NCCCCc3cccc4c3n(C)c(=O)n4C3CCC(=O)NC3=O)cn2)cc1Nc1cccn(C)c1=O (stereo not drawn) [Example K189] | 10 to 100 nM | 10 to 100 nM | > 100 nM
CNC(=O)c1cnc(Nc2ccc(C(=O)NCCCCc3cccc4c3n(C)c(=O)n4C3CCC(=O)NC3=O)cn2)cc1Nc1ccccc1S(C)(=O)=O (stereo not drawn) [Example K190] | > 100 nM | 1 to 10 nM | 10 to 100 nM
CNC(=O)c1cnc(Nc2ccc(C(=O)NCCCCc3cccc4c3n(C)c(=O)n4C3CCC(=O)NC3=O)cn2)cc1Nc1ccccc1OC (stereo not drawn) [Example K191] | 1 to 10 nM | 1 to 10 nM | > 100 nM
CNC(=O)c1cnc(Nc2ccc(C(=O)NCCCCc3cccc4c3n(C)c(=O)n4C3CCC(=O)NC3=O)cn2)cc1Nc1ccccc1 (stereo not drawn) [Example K192] | 1 to 10 nM | 1 to 10 nM | > 100 nM
CNC(=O)c1cnc(Nc2cc(C(=O)NCCCCCCc3cccc4c3n(C)c(=O)n4C3CCC(=O)NC3=O)ccn2)cc1Nc1cccc(-c2ncc(F)cn2)c1OC (stereo not drawn) [Example K193] | > 100 nM | 1 to 10 nM | 1 to 10 nM
CNC(=O)c1cnc(Nc2ccc(CN3CCN(Cc4ccc5c(c4)n(C)c(=O)n5C4CCC(=O)NC4=O)CC3)cn2)cc1Nc1cccc(-c2ncc(F)cn2)c1OC (stereo not drawn) [Example K194] | > 100 nM | < 1 nM | > 100 nM
CNC(=O)c1cnc(Nc2ccc(C(=O)N(C)C3CCN(c4cccc5c4n(C)c(=O)n5C4CCC(=O)NC4=O)CC3)cn2)cc1Nc1ccccc1OC (stereo not drawn) [Example K195] | > 100 nM | > 100 nM | 1 to 10 nM
CNC(=O)c1cnc(Nc2ccc(N3CCN(c4ccc5c(c4)n(C)c(=O)n5C4CCC(=O)NC4=O)CC3)cn2)cc1Nc1cccc(-c2ncc(F)cn2)c1OC (stereo not drawn) [Example K196] | < 1 nM | < 1 nM | > 100 nM
CNC(=O)c1cnc(Nc2ccc(C3CCN(Cc4ccc5c(c4)n(C)c(=O)n5C4CCC(=O)NC4=O)CC3)cn2)cc1Nc1cccc(-c2ncc(F)cn2)c1OC (stereo not drawn) [Example K197] | > 100 nM | < 1 nM | > 100 nM
CNC(=O)c1cnc(Nc2ccc(CN3CC(c4cccc5c4n(C)c(=O)n5C4CCC(=O)NC4=O)C3)cn2)cc1Nc1cccc(-c2ncc(F)cn2)c1OC (stereo not drawn) [Example K198] | > 100 nM | < 1 nM | > 100 nM
CNC(=O)c1cnc(Nc2ccc(CN3CC(c4ccc5c(c4)n(C)c(=O)n5C4CCC(=O)NC4=O)C3)cn2)cc1Nc1cccc(-c2ncc(F)cn2)c1OC (stereo not drawn) [Example K199] | > 100 nM | 1 to 10 nM | > 100 nM
Cn1c(=O)n(C2CCC(=O)NC2=O)c2ccc(CCOCCOCCNc3cc(Nc4cccn(-c5ccccn5)c4=O)nn4c(C(=O)N[C@@H]5C[C@@H]5F)cnc34)cc21 (stereo partly drawn) [Example K201] | > 100 nM | > 100 nM | > 100 nM
Cn1c(=O)n(C2CCC(=O)NC2=O)c2ccc(CCOCCOCCOCCOCCNc3cc(Nc4cccn(-c5ccccn5)c4=O)nn4c(C(=O)NC5C[C@@H]5F)cnc34)cc21 (stereo partly drawn) [Example K202] | > 100 nM | > 100 nM | > 100 nM
Cn1c(=O)n(C2CCC(=O)NC2=O)c2ccc(CCCCNc3cc(Nc4cccn(-c5ccccn5)c4=O)nn4c(C(=O)N[C@@H]5C[C@@H]5F)cnc34)cc21 (stereo partly drawn) [Example K204] | > 100 nM | > 100 nM | > 100 nM
Cn1c(=O)n(C2CCC(=O)NC2=O)c2cccc(CCCCNc3cc(Nc4cccn(-c5ccccn5)c4=O)nn4c(C(=O)N[C@@H]5C[C@@H]5F)cnc34)c21 (stereo partly drawn) [Example K205] | > 100 nM | > 100 nM | > 100 nM
Cn1c(=O)n(C2CCC(=O)NC2=O)c2cccc(CCCCCCNc3cc(Nc4cccn(-c5ccccn5)c4=O)nn4c(C(=O)N[C@@H]5C[C@@H]5F)cnc34)c21 (stereo partly drawn) [Example K206] | > 100 nM | > 100 nM | > 100 nM
Cn1c(=O)n(C2CCC(=O)NC2=O)c2ccc(CCCCCCNc3cc(Nc4cccn(-c5ccccn5)c4=O)nn4c(C(=O)N[C@@H]5C[C@@H]5F)cnc34)cc21 (stereo partly drawn) [Example K207] | > 100 nM | > 100 nM | > 100 nM
Cn1c(=O)n(C2CCC(=O)NC2=O)c2ccc(CCCCCCCCNc3cc(Nc4cccn(-c5ccccn5)c4=O)nn4c(C(=O)N[C@@H]5C[C@@H]5F)cnc34)cc21 (stereo partly drawn) [Example K208] | > 100 nM | > 100 nM | > 100 nM
Cn1c(=O)n(C2CCC(=O)NC2=O)c2cccc(CCCCCCCCNc3cc(Nc4cccn(-c5ccccn5)c4=O)nn4c(C(=O)N[C@@H]5C[C@@H]5F)cnc34)c21 (stereo partly drawn) [Example K209] | > 100 nM | > 100 nM | > 100 nM
Cn1c(=O)n(C2CCC(=O)NC2=O)c2ccc(CCCCCCCCCCNc3cc(Nc4cccn(-c5ccccn5)c4=O)nn4c(C(=O)N[C@@H]5C[C@@H]5F)cnc34)cc21 (stereo partly drawn) [Example K210] | > 100 nM | > 100 nM | > 100 nM

Other lines, results leading:

DC50 [1] | DC50 [2] | DC50 [3] | Structure (SMILES)
> 100 nM | > 100 nM | > 100 nM | Cn1c(=O)n(C2CCC(=O)NC2=O)c2ccc(CCCCCCCCCCCCNc3cc(Nc4cccn(-c5ccccn5)c4=O)nn4c(C(=O)N[C@@H]5C[C@@H]5F)cnc34)cc21 (stereo partly drawn) [Example K211]
> 100 nM | > 100 nM | > 100 nM | Cn1c(=O)n(C2CCC(=O)NC2=O)c2cccc(CCOCCOCCNc3cc(Nc4cccn(-c5ccccn5)c4=O)nn4c(C(=O)N[C@@H]5C[C@@H]5F)cnc34)c21 (stereo partly drawn) [Example K212]
> 100 nM | > 100 nM | > 100 nM | Cn1c(=O)n(C2CCC(=O)NC2=O)c2cccc(CCOCCOCCOCCOCCOCCOCCNc3cc(Nc4cccn(-c5ccccn5)c4=O)nn4c(C(=O)N[C@@H]5C[C@@H]5F)cnc34)c21 (stereo partly drawn) [Example K213]
> 100 nM | > 100 nM | > 100 nM | Cn1c(=O)n(C2CCC(=O)NC2=O)c2cccc(CCOCCOCCOCCOCCNc3cc(Nc4cccn(-c5ccccn5)c4=O)nn4c(C(=O)N[C@@H]5C[C@@H]5F)cnc34)c21 (stereo partly drawn) [Example K214]
> 100 nM | 10 to 100 nM | > 100 nM | CNc1cc(Nc2cccn(-c3ccc(C(=O)NCCOCCOCCOCCOCCOCCOCCc4ccc5c(c4)n(C)c(=O)n5C4CCC(=O)NC4=O)cn3)c2=O)nn2c(C(=O)N[C@@H]3C[C@@H]3F)cnc12 (stereo partly drawn) [Example K215]
> 100 nM | 1 to 10 nM | > 100 nM | CNc1cc(Nc2cccn(-c3ccc(C(=O)NCCOCCOCCc4cccc5c4n(C)c(=O)n5C4CCC(=O)NC4=O)cn3)c2=O)nn2c(C(=O)N[C@@H]3C[C@@H]3F)cnc12 (stereo partly drawn) [Example K216]
> 100 nM | 10 to 100 nM | 10 to 100 nM | CNc1cc(Nc2cccn(-c3ccc(C(=O)NCCOCCOCCOCCOCCOCCOCCc4cccc5c4n(C)c(=O)n5C4CCC(=O)NC4=O)cn3)c2=O)nn2c(C(=O)N[C@@H]3C[C@@H]3F)cnc12 (stereo partly drawn) [Example K217]
> 100 nM | 10 to 100 nM | > 100 nM | CNc1cc(Nc2cccn(-c3ccc(C(=O)NCCOCCOCCOCCOCCc4cccc5c4n(C)c(=O)n5C4CCC(=O)NC4=O)cn3)c2=O)nn2c(C(=O)N[C@@H]3C[C@@H]3F)cnc12 (stereo partly drawn) [Example K218]
> 100 nM | 1 to 10 nM | > 100 nM | CNc1cc(Nc2cccn(-c3cccc(C(=O)NCCCCc4ccc5c(c4)n(C)c(=O)n5C4CCC(=O)NC4=O)c3)c2=O)nn2c(C(=O)N[C@@H]3C[C@@H]3F)cnc12 (stereo partly drawn) [Example K219]
> 100 nM | > 100 nM | > 100 nM | CNc1cc(Nc2cccn(-c3cccc(C(=O)NCCCCc4cccc5c4n(C)c(=O)n5C4CCC(=O)NC4=O)c3)c2=O)nn2c(C(=O)N[C@@H]3C[C@@H]3F)cnc12 (stereo partly drawn) [Example K220]
> 100 nM | > 100 nM | > 100 nM | CNc1cc(Nc2cccn(-c3cccc(C(=O)NCCCCCCc4ccc5c(c4)n(C)c(=O)n5C4CCC(=O)NC4=O)c3)c2=O)nn2c(C(=O)N[C@@H]3C[C@@H]3F)cnc12 (stereo partly drawn) [Example K221]
> 100 nM | 1 to 10 nM | > 100 nM | CNc1cc(Nc2cccn(-c3cccc(C(=O)NCCCCCCc4cccc5c4n(C)c(=O)n5C4CCC(=O)NC4=O)c3)c2=O)nn2c(C(=O)N[C@@H]3C[C@@H]3F)cnc12 (stereo partly drawn) [Example K222]
> 100 nM | 1 to 10 nM | > 100 nM | CNc1cc(Nc2cccn(-c3cccc(C(=O)NCCCCCCCCc4ccc5c(c4)n(C)c(=O)n5C4CCC(=O)NC4=O)c3)c2=O)nn2c(C(=O)N[C@@H]3C[C@@H]3F)cnc12 (stereo partly drawn) [Example K223]
> 100 nM | 10 to 100 nM | > 100 nM | CNc1cc(Nc2cccn(-c3cccc(C(=O)NCCCCCCCCc4cccc5c4n(C)c(=O)n5C4CCC(=O)NC4=O)c3)c2=O)nn2c(C(=O)N[C@@H]3C[C@@H]3F)cnc12 (stereo partly drawn) [Example K224]
> 100 nM | 1 to 10 nM | > 100 nM | CNc1cc(Nc2cccn(-c3cccc(C(=O)NCCCCCCCCCCc4ccc5c(c4)n(C)c(=O)n5C4CCC(=O)NC4=O)c3)c2=O)nn2c(C(=O)N[C@@H]3C[C@@H]3F)cnc12 (stereo partly drawn) [Example K225]
> 100 nM | 10 to 100 nM | > 100 nM | CNc1cc(Nc2cccn(-c3cccc(C(=O)NCCCCCCCCCCc4cccc5c4n(C)c(=O)n5C4CCC(=O)NC4=O)c3)c2=O)nn2c(C(=O)N[C@@H]3C[C@@H]3F)cnc12 (stereo partly drawn) [Example K226]
